Laboratory results taken from patent US12539292B2, “BRM targeting compounds and associated methods of use” (Arvinas Operations, Inc., priority 2018, dated 2026).

Target: T1, BRM (Homo sapiens, UniProt P51531)
T1 construct: In-Cell Western Screen of BRM Degradation in SW1573 Cells; endogenous in cells; host or cells: SW1573
Test: In-cell Western screen of BRM degradation in SW1573 cells (Dmax and DC50)
Format: cell-based
Conditions: BRM degradation, SW1573 cells; for DC50: read-out: DC50; for Dmax: read-out: Dmax (% degraded)
In short: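 After adhering overnight, cells received compound for 18-20 hours. They were then washed in cold DPBS, fixed with 4% PFA for 20 min and permeabilized for 30 min. Blocking and fluorescent secondary staining followed before imaging.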

T1 sequence (P51531 whole entry): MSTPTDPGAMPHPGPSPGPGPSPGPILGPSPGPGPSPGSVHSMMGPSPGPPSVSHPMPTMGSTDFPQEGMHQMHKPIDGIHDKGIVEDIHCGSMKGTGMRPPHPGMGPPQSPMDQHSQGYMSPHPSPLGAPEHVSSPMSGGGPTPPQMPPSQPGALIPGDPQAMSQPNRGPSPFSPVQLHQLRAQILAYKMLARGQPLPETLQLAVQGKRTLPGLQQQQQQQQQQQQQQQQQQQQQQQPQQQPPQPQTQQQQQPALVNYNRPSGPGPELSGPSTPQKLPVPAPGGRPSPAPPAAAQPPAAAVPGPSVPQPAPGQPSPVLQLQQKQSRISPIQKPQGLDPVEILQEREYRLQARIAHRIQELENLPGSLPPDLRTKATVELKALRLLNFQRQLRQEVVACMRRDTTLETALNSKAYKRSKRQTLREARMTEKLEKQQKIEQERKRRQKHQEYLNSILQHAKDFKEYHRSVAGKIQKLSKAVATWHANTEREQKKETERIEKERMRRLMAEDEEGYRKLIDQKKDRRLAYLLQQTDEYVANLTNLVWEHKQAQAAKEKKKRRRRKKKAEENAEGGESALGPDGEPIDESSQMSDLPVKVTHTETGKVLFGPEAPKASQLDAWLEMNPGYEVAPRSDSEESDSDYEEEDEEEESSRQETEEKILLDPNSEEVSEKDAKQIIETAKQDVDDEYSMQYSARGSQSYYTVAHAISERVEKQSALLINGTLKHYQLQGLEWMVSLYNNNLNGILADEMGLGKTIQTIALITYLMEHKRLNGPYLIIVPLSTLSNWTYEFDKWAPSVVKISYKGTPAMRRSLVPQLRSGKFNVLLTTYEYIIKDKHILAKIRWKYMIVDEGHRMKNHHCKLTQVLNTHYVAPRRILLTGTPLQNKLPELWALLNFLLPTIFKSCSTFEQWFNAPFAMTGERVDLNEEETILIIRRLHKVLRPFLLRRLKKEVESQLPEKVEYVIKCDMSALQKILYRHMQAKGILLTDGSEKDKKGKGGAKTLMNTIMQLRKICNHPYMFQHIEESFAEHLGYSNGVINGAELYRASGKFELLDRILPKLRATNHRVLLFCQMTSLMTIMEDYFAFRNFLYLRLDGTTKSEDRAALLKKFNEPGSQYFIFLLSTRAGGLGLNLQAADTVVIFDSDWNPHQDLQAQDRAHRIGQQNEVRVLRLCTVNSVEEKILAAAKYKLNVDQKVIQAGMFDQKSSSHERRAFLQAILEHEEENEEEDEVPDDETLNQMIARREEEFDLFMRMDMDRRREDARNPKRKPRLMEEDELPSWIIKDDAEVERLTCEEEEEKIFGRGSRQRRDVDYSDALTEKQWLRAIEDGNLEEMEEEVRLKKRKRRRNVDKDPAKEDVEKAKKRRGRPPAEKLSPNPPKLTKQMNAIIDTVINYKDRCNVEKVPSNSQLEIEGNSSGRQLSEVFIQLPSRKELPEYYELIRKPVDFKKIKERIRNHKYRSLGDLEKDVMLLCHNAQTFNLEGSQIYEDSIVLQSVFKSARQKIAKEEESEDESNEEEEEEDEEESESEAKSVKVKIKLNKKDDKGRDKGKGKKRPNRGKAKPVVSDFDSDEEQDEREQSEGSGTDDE

Row | SMILES | DC50 [nM] | Dmax [%]
1 | CC(C)C(C(=O)N1C[C@H](O)C[C@H]1C(=O)N[C@@H](C)c1ccc(C#N)cc1)c1cc(N2CCC(CN3CCC(O[C@H]4C[C@H](Oc5cc(N6C7CCC6CN(c6cc(-c8ccccc8O)nnc6N)C7)ccn5)C4)CC3)CC2)no1 (stereo partly drawn) [compound 639, (2S,4R)-1-((2S)-2-(3-(4-((4-((1r,3r)-3-((4-(3-(3-amino-6-(2-hydroxyphenyl)pyridazin-4-yl)-3,8-diazabicyclo[3.2.1]octan-8-yl)pyridin-2-yl)oxy)cyclobutoxy)piperidin-1-yl)methyl)piperidin-1-yl)isoxazol-5-yl)-3-methylbutanoyl)-N-((S)-1-(4-cyanophenyl)ethyl)-4-hydroxypyrrolidine-2-carboxamide] | > 30 | 
2 | CC(C)[C@@H](C(=O)N1C[C@H](O)C[C@H]1C(=O)N[C@@H](C)c1ccc(C#N)cc1)c1cc(N2CCC(CN3CCC(O[C@H]4C[C@H](Oc5cc(N6C7CCC6CN(c6cc(-c8ccccc8O)nnc6N)C7)ccn5)C4)CC3)CC2)no1 [compound 640, (2S,4R)-1-((2R)-2-(3-(4-((4-((1r,3r)-3-((4-(3-(3-amino-6-(2-hydroxyphenyl)pyridazin-4-yl)-3,8-diazabicyclo[3.2.1]octan-8-yl)pyridin-2-yl)oxy)cyclobutoxy)piperidin-1-yl)methyl)piperidin-1-yl)isoxazol-5-yl)-3-methylbutanoyl)-N-((S)-1-(4-cyanophenyl)ethyl)-4-hydroxypyrrolidine-2-carboxamide] | < 2.5 | > 75
3 | Cc1ncsc1-c1ccc([C@H](C)NC(=O)[C@@H]2C[C@@H](O)CN2C(=O)[C@H](c2cc(N3CCC(O)(CN4CCC(O[C@H]5C[C@H](Oc6cc(N7C8CCC7CN(c7cc(-c9ccccc9O)nnc7N)C8)ccn6)C5)CC4)CC3)no2)C(C)C)cc1 [compound 641, (2S,4R)-1-((2S)-2-(3-(4-((4-((1r,3r)-3-((4-(3-(3-amino-6-(2-hydroxyphenyl)pyridazin-4-yl)-3,8-diazabicyclo[3.2.1]octan-8-yl)pyridin-2-yl)oxy)cyclobutoxy)piperidin-1-yl)methyl)-4-hydroxypiperidin-1-yl)isoxazol-5-yl)-3-methylbutanoyl)-4-hydroxy-N-((S)-1-(4-(4-methylthiazol-5-yl)phenyl)ethyl)pyrrolidine-2-carboxamide] | > 30 | 
4 | Cc1ncsc1-c1ccc([C@H](C)NC(=O)[C@@H]2C[C@@H](O)CN2C(=O)[C@@H](c2cc(N3CCC(CN4CCC(O[C@H]5C[C@H](CN6CCC(C(C)n7cc(-c8cc(-c9ccccc9O)nnc8N)cn7)CC6)C5)CC4)CC3)no2)C(C)C)cc1 (stereo partly drawn) [compound 642, (2S,4R)-1-((2R)-2-(3-(4-((4-((1r,3r)-3-((4-(1-(4-(3-amino-6-(2-hydroxyphenyl)pyridazin-4-yl)-1H-pyrazol-1-yl)ethyl)piperidin-1-yl)methyl)cyclobutoxy)piperidin-1-yl)methyl)piperidin-1-yl)isoxazol-5-yl)-3-methylbutanoyl)-4-hydroxy-N-((S)-1-(4-(4-methylthiazol-5-yl)phenyl)ethyl)pyrrolidine-2-carboxamide] | < 2.5 | > 75
5 | Cc1ncsc1-c1ccc([C@H](C)NC(=O)[C@@H]2C[C@@H](O)CN2C(=O)[C@H](c2cc(N3CCC(C(C)N4CCC(O[C@H]5C[C@H](Oc6cc(N7C8CCC7CN(c7cc(-c9ccccc9O)nnc7N)C8)ccn6)C5)CC4)CC3)no2)C(C)C)cc1 (stereo partly drawn) [compound 643, (2S,4R)-1-((2S)-2-(3-(4-(1-(4-((1r,3r)-3-((4-(3-(3-amino-6-(2-hydroxyphenyl)pyridazin-4-yl)-3,8-diazabicyclo[3.2.1]octan-8-yl)pyridin-2-yl)oxy)cyclobutoxy)piperidin-1-yl)ethyl)piperidin-1-yl)isoxazol-5-yl)-3-methylbutanoyl)-4-hydroxy-N-((S)-1-(4-(4-methylthiazol-5-yl)phenyl)ethyl)pyrrolidine-2-carboxamide] | < 2.5 | > 75
6 | Cc1ncsc1-c1ccc([C@H](C)NC(=O)[C@@H]2C[C@@H](O)CN2C(=O)[C@@H](c2cc(N3CCC(C(C)N4CCC(O[C@H]5C[C@H](Oc6cc(N7C8CCC7CN(c7cc(-c9ccccc9O)nnc7N)C8)ccn6)C5)CC4)CC3)no2)C(C)C)cc1 (stereo partly drawn) [compound 644, (2S,4R)-1-((2R)-2-(3-(4-(1-(4-((1r,3r)-3-((4-(3-(3-amino-6-(2-hydroxyphenyl)pyridazin-4-yl)-3,8-diazabicyclo[3.2.1]octan-8-yl)pyridin-2-yl)oxy)cyclobutoxy)piperidin-1-yl)ethyl)piperidin-1-yl)isoxazol-5-yl)-3-methylbutanoyl)-4-hydroxy-N-((S)-1-(4-(4-methylthiazol-5-yl)phenyl)ethyl)pyrrolidine-2-carboxamide] | < 2.5 | > 75
7 | Cc1ncsc1-c1ccc([C@H](C)NC(=O)[C@@H]2C[C@@H](O)CN2C(=O)[C@@H](c2cc(N3CCC(O)(CN4CCC(O[C@H]5C[C@H](Oc6cc(N7C8CCC7CN(c7cc(-c9ccccc9O)nnc7N)C8)ccn6)C5)CC4)CC3)no2)C(C)C)cc1 [compound 645, (2S,4R)-1-((2R)-2-(3-(4-((4-((1r,3r)-3-((4-(3-(3-amino-6-(2-hydroxyphenyl)pyridazin-4-yl)-3,8-diazabicyclo[3.2.1]octan-8-yl)pyridin-2-yl)oxy)cyclobutoxy)piperidin-1-yl)methyl)-4-hydroxypiperidin-1-yl)isoxazol-5-yl)-3-methylbutanoyl)-4-hydroxy-N-((S)-1-(4-(4-methylthiazol-5-yl)phenyl)ethyl)pyrrolidine-2-carboxamide] | < 2.5 | > 75
8 | Cc1ncsc1-c1ccc([C@H](C)NC(=O)[C@@H]2C[C@@H](O)CN2C(=O)[C@@H](c2cc(N3CCC4(CCN(C[C@H]5C[C@H](Oc6cc(N7C8CCC7CN(c7cc(-c9ccccc9O)nnc7N)C8)ccn6)C5)CC4)CC3)no2)C(C)C)cc1 [compound 646, (2S,4R)-1-((2R)-2-(3-(9-(((1r,3R)-3-((4-(3-(3-amino-6-(2-hydroxyphenyl)pyridazin-4-yl)-3,8-diazabicyclo[3.2.1]octan-8-yl)pyridin-2-yl)oxy)cyclobutyl)methyl)-3,9-diazaspiro[5.5]undecan-3-yl)isoxazol-5-yl)-3-methylbutanoyl)-4-hydroxy-N-((S)-1-(4-(4-methylthiazol-5-yl)phenyl)ethyl)pyrrolidine-2-carboxamide] | < 2.5 | > 75
9 | Cc1ncsc1-c1ccc([C@H](C)NC(=O)[C@@H]2C[C@@H](O)CN2C(=O)[C@H](c2cc(N3CCC4(CCN(C[C@H]5C[C@H](Oc6cc(N7C8CCC7CN(c7cc(-c9ccccc9O)nnc7N)C8)ccn6)C5)CC4)CC3)no2)C(C)C)cc1 [compound 647, (2S,4R)-1-((2S)-2-(3-(9-(((1r,3S)-3-((4-(3-(3-amino-6-(2-hydroxyphenyl)pyridazin-4-yl)-3,8-diazabicyclo[3.2.1]octan-8-yl)pyridin-2-yl)oxy)cyclobutyl)methyl)-3,9-diazaspiro[5.5]undecan-3-yl)isoxazol-5-yl)-3-methylbutanoyl)-4-hydroxy-N-((S)-1-(4-(4-methylthiazol-5-yl)phenyl)ethyl)pyrrolidine-2-carboxamide] | > 30 | 
10 | Cc1ncsc1-c1ccc([C@H](C)NC(=O)[C@@H]2C[C@@H](O)CN2C(=O)[C@@H](c2cc(N3CCC(CN4CCC(O[C@H]5C[C@H](N6CCC(C(C)n7cc(-c8cc(-c9ccccc9O)nnc8N)cn7)CC6)C5)CC4)CC3)no2)C(C)C)cc1 (stereo partly drawn) [compound 648, (2S,4R)-1-((2R)-2-(3-(4-((4-((1r,3r)-3-(4-(1-(4-(3-amino-6-(2-hydroxyphenyl)pyridazin-4-yl)-1H-pyrazol-1-yl)ethyl)piperidin-1-yl)cyclobutoxy)piperidin-1-yl)methyl)piperidin-1-yl)isoxazol-5-yl)-3-methylbutanoyl)-4-hydroxy-N-((S)-1-(4-(4-methylthiazol-5-yl)phenyl)ethyl)pyrrolidine-2-carboxamide] | < 2.5 | > 75
11 | Cc1ncsc1-c1ccc([C@H](C)NC(=O)[C@@H]2C[C@@H](O)CN2C(=O)[C@H](c2cc(N3CCC4(CC3)CC(CN3CCC(O[C@H]5C[C@H](Oc6cc(N7C8CCC7CN(c7cc(-c9ccccc9O)nnc7N)C8)ccn6)C5)CC3)C4)no2)C(C)C)cc1 [compound 649, (2S,4R)-1-((2S)-2-(3-(2-((4-((1r,3r)-3-((4-(3-(3-amino-6-(2-hydroxyphenyl)pyridazin-4-yl)-3,8-diazabicyclo[3.2.1]octan-8-yl)pyridin-2-yl)oxy)cyclobutoxy)piperidin-1-yl)methyl)-7-azaspiro[3.5]nonan-7-yl)isoxazol-5-yl)-3-methylbutanoyl)-4-hydroxy-N-((S)-1-(4-(4-methylthiazol-5-yl)phenyl)ethyl)pyrrolidine-2-carboxamide] | > 30 | 
12 | Cc1ncsc1-c1ccc([C@H](C)NC(=O)[C@@H]2C[C@@H](O)CN2C(=O)[C@@H](c2cc(N3CCC4(CC3)CC(CN3CCC(O[C@H]5C[C@H](Oc6cc(N7C8CCC7CN(c7cc(-c9ccccc9O)nnc7N)C8)ccn6)C5)CC3)C4)no2)C(C)C)cc1 [compound 650, (2S,4R)-1-((2R)-2-(3-(2-((4-((1r,3r)-3-((4-(3-(3-amino-6-(2-hydroxyphenyl)pyridazin-4-yl)-3,8-diazabicyclo[3.2.1]octan-8-yl)pyridin-2-yl)oxy)cyclobutoxy)piperidin-1-yl)methyl)-7-azaspiro[3.5]nonan-7-yl)isoxazol-5-yl)-3-methylbutanoyl)-4-hydroxy-N-((S)-1-(4-(4-methylthiazol-5-yl)phenyl)ethyl)pyrrolidine-2-carboxamide] | > 30 | 
